10 compounds from PubChem BioAssay (NCI) can be followed below.

Test systems include SF-268 CNS; HS 578T breast; UACC-257 melanoma; SNB-19 CNS; U251 CNS; TK-10 renal; MDA-MB-231 breast; DU-145 prostate; SW-620 colon; NCI-H226 lung.
What all share (experiment): NCI tumour cell line growth inhibition, 48 h

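Exposure lasted 48 hours, with cells grown in 96-well plates and compounds tested at five concentrations. Definition used: TGI = concentration required for complete inhibition of growth.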 Where a SMILES comes first, the peptide text is derived from it. The star is where a group is joined. X36 = O=C(c1ccc(-c2ccc(Cl)cc2Cl)o1)*

As to `CC1=NN2C(=N)/C(=C/c3ccco3)C(=O)N=C2S1`, the TGI with SF-268 CNS, with HS 578T breast, in the assay with UACC-257 melanoma, in the assay with SNB-19 CNS, in the assay with U251 CNS and in the assay on TK-10 renal was over 100 µM in each case. Further, the TGI in the assay with MDA-MB-231 breast, with DU-145 prostate, with SW-620 colon and in the assay with NCI-H226 lung was over 100 µM each time.
Take `CCC(C)C(NC(=O)CNC(=O)C(Cc1ccccc1)NC(=O)C1CCCN1C(=O)c1ccc(-c2ccc(Cl)cc2Cl)o1)C(=O)OC` (stereo not given) (X36-PFGI-OMe; configuration not given here): the TGI is over 100 µM in the assay with SF-268 CNS; over 100 µM in the assay with HS 578T breast; 67.2 µM with UACC-257 melanoma; over 100 µM with SNB-19 CNS; 93.5 µM in the assay with U251 CNS; over 100 µM with TK-10 renal. Also, the TGI in the assay with MDA-MB-231 breast, in the assay on DU-145 prostate, with SW-620 colon and with NCI-H226 lung was over 100 µM each time.
On to `COC(=O)[C@H](Cc1ccccc1)NC(=O)[C@H](Cc1ccccc1)NC(=O)[C@@H]1CCCN1C(=O)N[C@H]1C2C=CC(C2)C1C(=O)N1CCC[C@H]1C(=O)N[C@@H](C)C(=O)N[C@H](C(=O)OC)C(C)C` (stereo not given in full), for which the TGI with SF-268 CNS, in the assay on HS 578T breast, with UACC-257 melanoma, with SNB-19 CNS, in the assay on U251 CNS and with TK-10 renal was over 100 µM throughout. For the same compound, the TGI in the assay on MDA-MB-231 breast, in the assay with DU-145 prostate, with SW-620 colon and in the assay on NCI-H226 lung was over 100 µM throughout.
`N#Cc1nc(-c2cccs2)oc1N`: the TGI in the assay on SF-268 CNS, with HS 578T breast, in the assay on UACC-257 melanoma, with SNB-19 CNS, in the assay with U251 CNS and in the assay with TK-10 renal was over 100 µM throughout. In addition, the TGI with MDA-MB-231 breast, in the assay on DU-145 prostate, with SW-620 colon and with NCI-H226 lung was over 100 µM throughout.
With `O=c1oc2ccccc2c(Nc2ccc3c(c2)Oc2ccccc2O3)c1[N+](=O)[O-]`, the TGI in the assay on SF-268 CNS came out at 48.4 µM; in the assay with HS 578T breast, 82.8 µM; in the assay on UACC-257 melanoma it was 91.2 µM; with SNB-19 CNS, 40.4 µM; in the assay on U251 CNS, 30 µM; in the assay on TK-10 renal it was 40.1 µM. The TGI in the assay on MDA-MB-231 breast was 38.3 µM; in the assay with DU-145 prostate, 90.1 µM; with SW-620 colon, 74.9 µM; in the assay on NCI-H226 lung, 48.1 µM.
Regarding `CC(=O)O[C@H]1C#C/C=C\C#CC[C@@H]2C(=O)N[C@@H]12`, the TGI in the assay with SF-268 CNS was over 70.2 µM; with HS 578T breast it was over 86.2 µM; in the assay on UACC-257 melanoma, over 100 µM; in the assay on SNB-19 CNS it was over 100 µM; in the assay with U251 CNS, over 100 µM; in the assay on TK-10 renal, over 100 µM. Moreover, the TGI is over 100 µM in the assay with MDA-MB-231 breast, 62 µM in the assay on DU-145 prostate, over 100 µM with SW-620 colon and 90.8 µM in the assay with NCI-H226 lung.
Turning to `CC1=COC(C)(C=C(C#N)C#N)CC1` (stereo not given), the TGI in the assay with SF-268 CNS was over 100 µM; in the assay on HS 578T breast, 51.3 µM; in the assay with UACC-257 melanoma it was over 100 µM; in the assay on SNB-19 CNS it was over 100 µM; with U251 CNS it was over 100 µM; in the assay with TK-10 renal, over 100 µM. Moreover, the TGI with MDA-MB-231 breast, in the assay on DU-145 prostate, in the assay with SW-620 colon and in the assay with NCI-H226 lung was over 100 µM in each case.
As to `CCOP(=O)(OCC)c1c(C(=O)OC)cc(=O)[nH]c1-c1ccc(C)cc1`, the TGI was over 52.1 µM in the assay with SF-268 CNS; 49.1 µM in the assay with HS 578T breast; 30.1 µM with UACC-257 melanoma; over 54.3 µM with SNB-19 CNS; 29.3 µM in the assay with U251 CNS; 27.9 µM in the assay on TK-10 renal. The TGI in the assay with MDA-MB-231 breast was 76.3 µM; in the assay with DU-145 prostate it was 17.5 µM; in the assay on SW-620 colon, 23.5 µM; with NCI-H226 lung it was 29.6 µM.
With `CCOC(=O)/C1=C(\C)N(c2ccc(C)cc2)C(=O)c2ccccc2C(=O)c2c(OC(C)=O)ccc(OC(C)=O)c21`, the TGI with SF-268 CNS is over 100 µM; in the assay on HS 578T breast, 48.2 µM; in the assay with UACC-257 melanoma it was 80.7 µM; in the assay on SNB-19 CNS, 90.1 µM; with U251 CNS, 97.9 µM; in the assay with TK-10 renal, 44.4 µM. Also, the TGI was 83.9 µM in the assay with MDA-MB-231 breast, over 100 µM with DU-145 prostate, over 100 µM in the assay on SW-620 colon and 65.7 µM in the assay on NCI-H226 lung.
Consider `NP(=O)(OCC1=CC(=O)c2ccccc2C1=O)N(CCBr)CCBr` (stereo not given), for which the TGI is 26.7 µM in the assay with SF-268 CNS; 90.7 µM in the assay on HS 578T breast; 4.21 µM with UACC-257 melanoma; over 55.1 µM in the assay with SNB-19 CNS; 28.7 µM in the assay with U251 CNS; 33.1 µM in the assay with TK-10 renal. Also, the TGI with MDA-MB-231 breast was 27.2 µM; in the assay on DU-145 prostate it was 18.1 µM; in the assay on SW-620 colon, over 34.2 µM; in the assay with NCI-H226 lung, 25.8 µM.
